Patent US20260265273A1, “SOLID FORM OF FUSED RING COMPOUND, AND PREPARATION METHOD THEREFOR AND USE THEREOF” (APPLIED PHARMACEUTICAL SCIENCE, INC., priority 2022, published 2026)

Tests used:
[1] = Hygroscopicity test (DVS); assay type: physicochemical
Protocol: Dynamic vapor sorption (DVS) curves were acquired on a DVS Intrinsic in SMS (Surface Measurement Systems). The relative humidity at 25° C. was corrected with the deliquescence points of LiCl, Mg(NO3)2, and KCl.

[2] = Solid-state stability test (XRPD, HPLC purity); assay type: physicochemical
[3] = Solubility Test II (saturated solubility by HPLC); assay type: physicochemical; conditions: 37° C., 24 h
Protocol: Chromatographic column: Waters XTERRA RP18, 4.6 mm×150 mm, 3.5 μm or an equivalent chromatographic column. […] The gradient elution conditions are shown in Table 3-2. pH 4.5 acetate buffer: 0.59806 g of sodium acetate trihydrate was added to a 200-mL measuring flask and dissolved in an appropriate amount of water; 1.6 mL of glacial acetic acid was added; and the mixture was diluted to volume to obtain the pH 4.5 acetate buffer. pH 6.8 phosphate buffer: 1.38501 g of potassium dihydrogen phosphate and 0.18086 g of sodium hydroxide were added to the same 200-mL measuring flask; and the mixture was dissolved in water and diluted to volume to obtain the pH 6.8 phosphate buffer. 10.0 mL of each medium was precisely measured, and the media were placed into different 25-mL measuring flasks; an appropriate amount of each test crystal form was added; and the flasks were sealed and oscillated in an oscillator at 37° C. for 24 h to obtain supersaturated solutions. pH 6.8 phosphate buffer sample solution: the supersaturated solution prepared using the pH 6.8 phosphate buffer medium was filtered to obtain the pH 6.8 phosphate buffer sample solution. Water sample solution: the supersaturated solution prepared using the water medium was filtered to obtain the water sample solution. pH 4.5 acetate buffer sample solution: the supersaturated solution prepared using the pH 4.5 acetate buffer medium was filtered, and 1.0 mL of the filtrate was precisely measured and placed into a 10-mL measuring flask; the filtrate was diluted to volume with the pH 4.5 acetate buffer medium, and 1.0 mL of the solution was then precisely measured and placed into the 10-mL measuring flask; and the solution was diluted to volume with methanol to obtain the pH 4.5 acetate buffer sample solution. (ii) Preparation of crystal form A sample solution: pH 6.8 phosphate buffer sample solution: the supersaturated solution prepared using the pH 6.8 phosphate buffer medium was filtered to obtain the pH 6.8 phosphate buffer sample solution. Water sample solution: the supersaturated solution prepared using the water medium was filtered to obtain the water sample solution. pH 4.5 acetate buffer sample solution: the supersaturated solution prepared using the pH 4.5 acetate buffer medium was filtered, and 1.0 mL of the filtrate was precisely measured and placed into a 10-mL measuring flask; the filtrate was diluted to volume with the pH 4.5 acetate buffer medium, and 1.0 mL of the solution was then precisely measured and placed into a 25-mL measuring flask; and the solution was diluted to volume with methanol to obtain the pH 4.5 acetate buffer sample solution. Each medium sample solution was taken, 10 μL of each test sample solution was precisely measured and injected into a liquid chromatograph according to the chromatography conditions described above, and the chromatogram was recorded. The saturated solution degree of each medium was calculated according to the formula below. In the formula: WR=sample weight of control solution, mg; PR=purity factor of control; • AS=peak area of main peak in test solution: DS=dilution factor of test solution; • AR=peak area of main peak in control solution; DR=dilution factor of control solution;

[4] = Pharmacokinetic experiment in SD rats; assay type: in vivo; conditions: oral intragastric 10 mg/kg, 1 mg/mL in 5% DMSO in normal saline, compound I in plasma, 0.25-24 h
Protocol: Six SPF-grade SD rats were prepared and weighed before administration. The dose of administration was calculated based on the weight. […] These administration solutions were orally and intragastrically administered at 10 mg/kg. The rats were weighed before administration, and the dose of administration was calculated based on the weight. 3 rats were used for each crystal form. The administration solutions were orally and intragastrically administered, followed by collection of samples via the jugular vein or other suitable means at the following time points: 0.25 […], and 24 h. About 0.20 mL of each sample was collected, and the plasma was separated out by centrifugation within 2 h. The compound I was detected, and plasma drug concentration-time curves were plotted. The pharmacokinetic parameters were calculated by utilizing WinNonlin according to the plasma concentration data at different time points.

[5] = Crystal form change on drying or standing at room conditions; assay type: physicochemical
Protocol: 20 mg of the amorphous form Z prepared according to the method in Example 1 was weighed into a 3-mL vial. The solid was dissolved in 1.0-1.5 mL of solvent NMP (N-methylpyrrolidone), and the resulting mixture was filtered through a filter membrane to obtain a clear solution. About 4 mL of anti-solvent ACN was added to a 20-mL vial. The uncovered 3-mL vial containing the filtrate was placed into the 20-mL vial, and then the 20-mL vial was sealed and allowed to stand at room temperature. The solid was precipitated and collected to obtain the crystal form I. The X-ray powder diffraction pattern of this crystal form is shown in FIG. 9.
After drying in the air, the crystal form P was transformed to the anhydrous crystal form C. Thus, the crystal form P was determined to be a hydrate.

[6] = 1H-NMR analysis of salt crystal forms; assay type: physicochemical; conditions: DMSO-d6
Protocol: 1 g of the amorphous form Z prepared according to the method in Example 1 was weighed into a vial, and 14 mL of trichloromethane was added; the mixture was stirred at 35° C. for complete dissolution to obtain a solution 1; 102.64 mg of maleic acid was completely dissolved in 2 mL of ethanol to obtain a solution 2; 551 μL of the solution 2 was added to 0.7 mL of the solution 1 with stirring at room temperature, and no solid was precipitated; the mixture was stirred for 5 h and then placed at 4-8° C. overnight, and no solid was precipitated; 0.8 mL of methyl tert-butyl ether was added to obtain a turbid solution, and the turbid solution was stirred to obtain an oil; 0.4 mL of methyl tert-butyl ether was supplemented; and the mixture was successively stirred overnight, centrifuged, and dried in vacuum at 25° C. to obtain the crystal form T. The X-ray powder diffraction pattern of this crystal form is shown in FIG. 24A. […]

[7] = 25° C./60% RH/uncovered, 2 weeks
[8] = 25° C./60% RH/uncovered, 4 weeks
[9] = 25° C./60% RH/uncovered, 6 weeks
[10] = 40° C./75% RH/uncovered, 2 weeks
[11] = 40° C./75% RH/uncovered, 4 weeks
[12] = 40° C./75% RH/uncovered, 6 weeks
[13] = DVS, isothermal adsorption curve

CCOc1cc(-c2ccc(N3CC4CC(C3)N4Cc3ccc(OC)nc3)nc2)c2c3cn[nH]c3nn2c1 (single isomer, unassigned) [Crystal form B]
hygroscopicity evaluation ([1]; DVS at 25° C., 0% RH-95% RH, according to Chinese Pharmacopoeia 2015 Edition): slightly hygroscopic | hygroscopic weight gain ([1]; DVS, 25° C./80% RH, listed as crystal form B): about 1.0% | crystal form after the DVS test (XRPD) ([1]; after DVS test): not changed | Purity (area %) [2, 7]: 99.96 area % | Relative to initial purity (%) [2, 7]: 100.01% | Purity (area %) [2, 8]: 99.96 area % | Relative to initial purity (%) [2, 8]: 100.01% | Purity (area %) [2, 9]: 99.96 area % | Relative to initial purity (%) [2, 9]: 100.01% | Purity (area %) [2, 10]: 99.96 area % | Relative to initial purity (%) [2, 10]: 100.01% | Crystal form change ([2]; 40° C./75% RH/uncovered, 2 weeks, XRPD): No change | Purity (area %) [2, 11]: 99.96 area % | Relative to initial purity (%) [2, 11]: 100.01% | Purity (area %) [2, 12]: 99.96 area % | Relative to initial purity (%) [2, 12]: 100.01% | Purity (area %) ([2]; 60° C./sealed, 24 h): 99.97 area % | Relative to initial purity (%) ([2]; 60° C./sealed, 24 h): 100.01% | HPLC purity under the test conditions ([2]; all stability conditions (60° C. sealed 24 h; 25° C./60% RH and 40° C./75% RH uncovered 2, 4, 6 weeks)): not significantly reduced | crystal form under the test conditions ([2]; all stability conditions, XRPD): not changed | Saturated solubility ([3]; Water): 0.34 µg/mL | Saturated solubility ([3]; pH 4.5 acetate buffer, listed as crystal form B): 3107.54 µg/mL | Saturated solubility ([3]; pH 6.8 phosphate buffer): 0.02 µg/mL | AUC(0-t) [4]: 10424 ng·h/mL

CCOc1cc(-c2ccc(N3CC4CC(C3)N4Cc3ccc(OC)nc3)nc2)c2c3cn[nH]c3nn2c1 [crystal form I]
crystal form after drying ([5]; drying at room temperature): transformed to the crystal form A

CCOc1cc(-c2ccc(N3CC4CC(C3)N4Cc3ccc(OC)nc3)nc2)c2c3cn[nH]c3nn2c1 [crystal form P]
crystal form of the wet sample after standing ([5]; placed in the air for about 10 min): transformation to the crystal form C

CCOc1cc(-c2ccc(N3CC4CC(C3)N4Cc3ccc(OC)nc3)nc2)c2c3cn[nH]c3nn2c1 [crystal form Q]
crystal form after standing ([5]; placed at room temperature and room humidity): transferred to the hydrate crystal form M

CCOc1cc(-c2ccc(N3CC4CC(C3)N4Cc3ccc(OC)nc3)nc2)c2c3cn[nH]c3nn2c1 [crystal form R]
RH at which the form started to significantly absorb water and underwent polymorphic transition to hydrate crystal form S [1, 13]: 50 % RH

CCOc1cc(-c2ccc(N3CC4CC(C3)N4Cc3ccc(OC)nc3)nc2)c2c3cn[nH]c3nn2c1 [crystal form S]
RH at which the form started to dehydrate and underwent polymorphic transition to anhydrous crystal form R [1, 13]: 40 % RH

CCOc1cc(-c2ccc(N3CC4CC(C3)N4Cc3ccc(OC)nc3)nc2)c2c3cn[nH]c3nn2c1 [crystal form T]
stability in the 1H-NMR analysis [6]: decomposition occurred
